Results published in PubChem BioAssay AID330 (DTP/NCI, 2004).
“And” between values parts separate entries of the source, which are not always exact repeats. Identical values can stand only once. Inconclusive results and toxic doses are left out.

Tested on: P388 leukemia ip, CD2F1 mice, survival T/C
Test: NCI In Vivo Anticancer Drug Screen. Data for tumor model P388 Leukemia (intraperitoneal) in CD2F1 (CDF1) mice
Settings: endpoint: median survival time, higher = longer survival
Procedure, shortened: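 Mice carrying the transplanted tumor received test compound or vehicle. Survival was recorded in each group, and the value is the treated-group measurement divided by that of the vehicle-treated control group.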

[1] = dose: 25.0 mg/kg/injection, schedule: Q01DX009 (ip), vehicle: water
[2] = dose: 50.0 mg/kg/injection, schedule: Q01DX009 (ip), vehicle: water
[3] = dose: 100.0 mg/kg/injection, schedule: Q01DX009 (ip), vehicle: water
[4] = dose: 200.0 mg/kg/injection, schedule: Q01DX009 (ip), vehicle: water
[5] = dose: 50.0 mg/kg/injection, schedule: Q01DX001 (ip), vehicle: saline with Tween-80
[6] = dose: 100.0 mg/kg/injection, schedule: Q01DX001 (ip), vehicle: saline with Tween-80
[7] = dose: 200.0 mg/kg/injection, schedule: Q01DX001 (ip), vehicle: saline with Tween-80
[8] = dose: 25.0 mg/kg/injection, schedule: Q01DX009 (ip), vehicle: Klucel (hydroxypropylcellulose) (HPC)
[9] = dose: 50.0 mg/kg/injection, schedule: Q01DX009 (ip), vehicle: Klucel (hydroxypropylcellulose) (HPC)
[10] = dose: 100.0 mg/kg/injection, schedule: Q01DX009 (ip), vehicle: Klucel (hydroxypropylcellulose) (HPC)
[11] = dose: 200.0 mg/kg/injection, schedule: Q01DX009 (ip), vehicle: Klucel (hydroxypropylcellulose) (HPC)
[12] = dose: 50.0 mg/kg/injection, schedule: Q01DX005 (ip), vehicle: saline with Tween-80
[13] = dose: 100.0 mg/kg/injection, schedule: Q01DX005 (ip), vehicle: saline with Tween-80
[14] = dose: 200.0 mg/kg/injection, schedule: Q01DX005 (ip), vehicle: saline with Tween-80
[15] = dose: 60.0 mg/kg/injection, schedule: Q01DX005 (ip), vehicle: saline
[16] = dose: 120.0 mg/kg/injection, schedule: Q01DX005 (ip), vehicle: saline
[17] = dose: 400.0 mg/kg/injection, schedule: Q01DX009 (ip), vehicle: Klucel (hydroxypropylcellulose) (HPC)
[18] = dose: 25.0 mg/kg/injection, schedule: Q01DX009 (ip), vehicle: saline with Tween-80
[19] = dose: 50.0 mg/kg/injection, schedule: Q01DX009 (ip), vehicle: saline with Tween-80
[20] = dose: 100.0 mg/kg/injection, schedule: Q01DX009 (ip), vehicle: saline with Tween-80

## NCC(=O)OCN1C(=O)C2C3C=CC(C2C1=O)C1C2C(=O)N(COC(=O)CN)C(=O)C2C31 (configuration not stated)
dose: 6.25 mg/kg/injection, schedule: Q01DX009 (ip), vehicle: water
  T/C: 109 % of control
dose: 12.5 mg/kg/injection, schedule: Q01DX009 (ip), vehicle: water
  T/C: 104 % of control
[1]
  T/C: 104 % of control and 109 % of control
dose: 25.75 mg/kg/injection, schedule: Q01DX009 (ip), vehicle: water
  T/C: 112 % of control
[2]
  T/C: 99 % of control and 115 % of control and 116 % of control
dose: 51.5 mg/kg/injection, schedule: Q01DX009 (ip), vehicle: water
  T/C: 121 % of control
[3]
  T/C: 118 % of control
dose: 103.0 mg/kg/injection, schedule: Q01DX009 (ip), vehicle: water
  T/C: 203 % of control
[4]
  T/C: 91 % of control
dose: 400.0 mg/kg/injection, schedule: Q01DX009 (ip), vehicle: water
  T/C: 173 % of control

## Cc1ccc2c(c1)nc(-c1ccccn1)n2CCc1ccncc1
[5]
  T/C: 95 % of control
[6]
  T/C: 96 % of control
[7]
  T/C: 101 % of control

## CCOC(=O)c1ccc(N(CCC2CO2)S(=O)(=O)c2ccc(C)cc2)cc1 (configuration not stated)
[8]
  T/C: 94 % of control
[9]
  T/C: 93 % of control
[10]
  T/C: 98 % of control
[11]
  T/C: 94 % of control

## Cc1cc2c(cc1N)C(C)C1(CCC(=O)N2Cc2ccccc2)OCCO1 (configuration not stated)
[12]
  T/C: 96 % of control
[13]
  T/C: 99 % of control
[14]
  T/C: 93 % of control

## CCn1nnnc1Nc1ccccc1
[9]
  T/C: 120 % of control
[10]
  T/C: 123 % of control
[11]
  T/C: 113 % of control

## Cc1c(C(N)=O)no[n+]1[O-]
dose: 30.0 mg/kg/injection, schedule: Q01DX005 (ip), vehicle: saline
  T/C: 100 % of control
[15]
  T/C: 99 % of control and 100 % of control
[16]
  T/C: 99 % of control and 100 % of control

## O=C1CCCCCCCCCCCCCCO1
[9]
  T/C: 97 % of control
[10]
  T/C: 106 % of control
[11]
  T/C: 102 % of control
[17]
  T/C: 106 % of control

## CC1=C2C(=CO[C@H](C)[C@H]2C)C(=O)C(C(=O)O)=C1O
dose: 6.25 mg/kg/injection, schedule: Q01DX009 (ip), vehicle: Klucel (hydroxypropylcellulose) (HPC)
  T/C: 112 % of control
dose: 6.25 mg/kg/injection, schedule: Q01DX009 (ip), vehicle: saline
  T/C: 117 % of control
dose: 12.5 mg/kg/injection, schedule: Q01DX009 (ip), vehicle: Klucel (hydroxypropylcellulose) (HPC)
  T/C: 120 % of control
dose: 12.5 mg/kg/injection, schedule: Q01DX009 (ip), vehicle: saline
  T/C: 115 % of control
[8]
  T/C: 124 % of control

## CC1CCC/C=C/C2CC(O)CC2C(O)/C=C\C(=O)O1 (configuration not stated)
dose: 8.75 mg/kg/injection, schedule: Q01DX005 (ip), vehicle: Klucel (hydroxypropylcellulose) (HPC)
  T/C: 101 % of control
dose: 17.5 mg/kg/injection, schedule: Q01DX005 (ip), vehicle: Klucel (hydroxypropylcellulose) (HPC)
  T/C: 97 % of control
dose: 35.0 mg/kg/injection, schedule: Q01DX005 (ip), vehicle: Klucel (hydroxypropylcellulose) (HPC)
  T/C: 93 % of control
dose: 70.0 mg/kg/injection, schedule: Q01DX005 (ip), vehicle: Klucel (hydroxypropylcellulose) (HPC)
  T/C: 100 % of control

## CC1=NCc2nnn(Cc3ccccc3)c2N1
[9]
  T/C: 100 % of control
[10]
  T/C: 95 % of control
[11]
  T/C: 103 % of control

## O=C1NC(=O)[C@H]2C3C=CC([C@@H]12)[C@@H]1C(=O)NC(=O)[C@H]31
[1]
  T/C: 105 % of control
[2]
  T/C: 100 % of control
[3]
  T/C: 97 % of control
[4]
  T/C: 92 % of control

## N#Cc1nccnc1C#N
dose: 12.5 mg/kg/injection, schedule: Q01DX009 (ip), vehicle: saline with Tween-80
  T/C: 86 % of control
[18]
  T/C: 105 % of control
[9]
  T/C: 102 % of control
[19]
  T/C: 101 % of control

## CCN(CC)CCNC1CC2CCC1(C)C2(C)C (configuration not stated)
dose: 25.0 mg/kg/injection, schedule: Q01DX005 (ip), vehicle: saline with Tween-80
  T/C: 98 % of control
[12]
  T/C: 91 % of control
[13]
  T/C: 89 % of control

## COC(=O)C1(C)C(=O)C=CC2(C)C1CC(OC(C)=O)C1(C)C2C(=O)C(OC(C)=O)C2(C)C(c3ccoc3)CC3OC321 (configuration not stated)
dose: 0.75 mg/kg/injection, schedule: Q01DX005 (ip), vehicle: Klucel (hydroxypropylcellulose) (HPC)
  T/C: 99 % of control
dose: 1.5 mg/kg/injection, schedule: Q01DX005 (ip), vehicle: Klucel (hydroxypropylcellulose) (HPC)
  T/C: 101 % of control
dose: 3.0 mg/kg/injection, schedule: Q01DX005 (ip), vehicle: Klucel (hydroxypropylcellulose) (HPC)
  T/C: 97 % of control
dose: 6.0 mg/kg/injection, schedule: Q01DX005 (ip), vehicle: Klucel (hydroxypropylcellulose) (HPC)
  T/C: 97 % of control
dose: 12.0 mg/kg/injection, schedule: Q01DX005 (ip), vehicle: Klucel (hydroxypropylcellulose) (HPC)
  T/C: 98 % of control

## CNC(=O)c1ccccc1
[18]
  T/C: 98 % of control
[19]
  T/C: 100 % of control
[20]
  T/C: 100 % of control
dose: 200.0 mg/kg/injection, schedule: Q01DX009 (ip), vehicle: saline with Tween-80
  T/C: 100 % of control

## O=C1c2ccccc2C(=O)C2C(=O)c3ccccc3C(=O)C12 (configuration not stated)
[12]
  T/C: 95 % of control
[13]
  T/C: 95 % of control
[14]
  T/C: 103 % of control

## Nc1cc(S(=O)(=O)O)cc2cc(S(=O)(=O)O)cc(O)c12
dose: 60.0 mg/kg/injection, schedule: Q01DX005 (ip), vehicle: Klucel (hydroxypropylcellulose) (HPC)
  T/C: 96 % of control
dose: 120.0 mg/kg/injection, schedule: Q01DX005 (ip), vehicle: Klucel (hydroxypropylcellulose) (HPC)
  T/C: 98 % of control
dose: 240.0 mg/kg/injection, schedule: Q01DX005 (ip), vehicle: Klucel (hydroxypropylcellulose) (HPC)
  T/C: 95 % of control

## COc1ccc(NC(CCN2CCN(c3ccccc3)CC2)=NC(C)(C)C)cc1
[9]
  T/C: 96 % of control
[10]
  T/C: 96 % of control

## C[N+]12CCO[B-]1(c1ccccc1)OCC2 (configuration not stated)
[15]
  T/C: 108 % of control
[16]
  T/C: 100 % of control
dose: 240.0 mg/kg/injection, schedule: Q01DX005 (ip), vehicle: saline
  T/C: 100 % of control

## CCCCCCCCCCCCCCCCC/C=C1\CC(=O)OC1=O
[18]
  T/C: 103 % of control
[19]
  T/C: 97 % of control
[20]
  T/C: 89 % of control

## CCOC(=O)Nc1cc2c(c(N)n1)N=C(c1ccc(C)cc1C)CN2
dose: 5.0 mg/kg/injection, schedule: Q01DX005 (ip), vehicle: saline with Tween-80
  T/C: 109 % of control
dose: 10.0 mg/kg/injection, schedule: Q01DX005 (ip), vehicle: saline with Tween-80
  T/C: 115 % of control
dose: 20.0 mg/kg/injection, schedule: Q01DX005 (ip), vehicle: saline with Tween-80
  T/C: 123 % of control

## Cc1cccc(C)c1N=O
[9]
  T/C: 122 % of control and 124 % of control
[11]
  T/C: 87 % of control

## COc1ccc(CC(C#N)c2ccc(Cl)cc2)cc1 (configuration not stated)
[9]
  T/C: 107 % of control
[10]
  T/C: 101 % of control
[11]
  T/C: 98 % of control
[17]
  T/C: 98 % of control

## CC1(C)C=C2OC(=O)CCC2(C)CC1 (configuration not stated)
[5]
  T/C: 95 % of control
[6]
  T/C: 118 % of control
[7]
  T/C: 90 % of control

## O=C1OCC/C1=C/OS(=O)(=O)C(F)(F)F
dose: 18.8 mg/kg/injection, schedule: Q01DX009 (ip), vehicle: distilled water + Tween-80
  T/C: 101 % of control and 107 % of control
dose: 37.5 mg/kg/injection, schedule: Q01DX009 (ip), vehicle: distilled water + Tween-80
  T/C: 110 % of control
dose: 75.0 mg/kg/injection, schedule: Q01DX009 (ip), vehicle: distilled water + Tween-80
  T/C: 118 % of control and 123 % of control

## CC1=NC(=O)C(N=O)C(=O)N1 (configuration not stated)
dose: 100.0 mg/kg/injection, schedule: Q04DX002 (ip), vehicle: saline with Tween-80
  T/C: 99 % of control
dose: 200.0 mg/kg/injection, schedule: Q04DX002 (ip), vehicle: saline with Tween-80
  T/C: 97 % of control

## C1=C[N-]c2c3c(ccc2=C1)=CC=C[N-]3.N#[O+].O.O=N[O-].O=N[O-].[Ru+2]
dose: 3.13 mg/kg/injection, schedule: Q04DX003 (ip), vehicle: water
  T/C: 107 % of control
dose: 12.5 mg/kg/injection, schedule: Q04DX003 (ip), vehicle: water
  T/C: 121 % of control

## O=S(=O)(O)c1cc2cc(S(=O)(=O)O)c3nnc4cc(S(=O)(=O)O)cc5cc(S(=O)(=O)O)c(nnc6cc(S(=O)(=O)O)cc7cc(S(=O)(=O)O)c(nnc(c1)c2c3O)c(O)c76)c(O)c54
dose: 30.0 mg/kg/injection, schedule: Q01DX005 (ip), vehicle: saline with Tween-80
  T/C: 93 % of control
dose: 60.0 mg/kg/injection, schedule: Q01DX005 (ip), vehicle: saline with Tween-80
  T/C: 106 % of control and 91 % of control
